What was measured:
Cannabinoid receptor 1 = Cannabinoid receptor 1 (Homo sapiens, UniProt P21554)
[1] = biological target: T1, Alpha-1A adrenergic receptor (Homo sapiens, UniProt P35348); type: functional, cell-based
T1 sequence (P35348 whole entry): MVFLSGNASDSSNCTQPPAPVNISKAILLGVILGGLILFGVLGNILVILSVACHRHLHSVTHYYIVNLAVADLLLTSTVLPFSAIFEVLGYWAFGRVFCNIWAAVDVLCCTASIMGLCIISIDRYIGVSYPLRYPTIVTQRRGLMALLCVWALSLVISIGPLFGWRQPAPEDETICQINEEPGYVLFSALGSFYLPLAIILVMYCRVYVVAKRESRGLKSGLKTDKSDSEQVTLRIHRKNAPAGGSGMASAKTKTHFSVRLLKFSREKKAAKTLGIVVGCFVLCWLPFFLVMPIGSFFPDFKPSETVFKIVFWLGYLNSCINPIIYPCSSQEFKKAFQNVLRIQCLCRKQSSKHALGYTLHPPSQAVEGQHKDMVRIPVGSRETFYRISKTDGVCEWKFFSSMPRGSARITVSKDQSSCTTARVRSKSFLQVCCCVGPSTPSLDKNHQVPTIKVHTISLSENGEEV

[2] = biological target: Beta-2 adrenergic receptor (Homo sapiens, UniProt P07550); type: functional, cell-based
Beta-2 adrenergic receptor, sequence (P07550 whole entry): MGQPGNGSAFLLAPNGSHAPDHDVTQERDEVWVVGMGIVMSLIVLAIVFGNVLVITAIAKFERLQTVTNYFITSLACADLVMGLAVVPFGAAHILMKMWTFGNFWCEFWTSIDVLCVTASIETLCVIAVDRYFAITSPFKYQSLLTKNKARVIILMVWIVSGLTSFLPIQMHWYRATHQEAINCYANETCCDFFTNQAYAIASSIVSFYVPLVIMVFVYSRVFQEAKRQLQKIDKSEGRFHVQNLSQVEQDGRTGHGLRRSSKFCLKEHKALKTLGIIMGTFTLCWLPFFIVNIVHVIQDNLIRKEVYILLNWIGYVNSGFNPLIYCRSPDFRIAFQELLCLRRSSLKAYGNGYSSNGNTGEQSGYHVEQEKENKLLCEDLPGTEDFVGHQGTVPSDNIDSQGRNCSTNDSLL

[3] = biological target: 5-hydroxytryptamine receptor 2B (Homo sapiens, UniProt P41595)
5-hydroxytryptamine receptor 2B, sequence (P41595 whole entry): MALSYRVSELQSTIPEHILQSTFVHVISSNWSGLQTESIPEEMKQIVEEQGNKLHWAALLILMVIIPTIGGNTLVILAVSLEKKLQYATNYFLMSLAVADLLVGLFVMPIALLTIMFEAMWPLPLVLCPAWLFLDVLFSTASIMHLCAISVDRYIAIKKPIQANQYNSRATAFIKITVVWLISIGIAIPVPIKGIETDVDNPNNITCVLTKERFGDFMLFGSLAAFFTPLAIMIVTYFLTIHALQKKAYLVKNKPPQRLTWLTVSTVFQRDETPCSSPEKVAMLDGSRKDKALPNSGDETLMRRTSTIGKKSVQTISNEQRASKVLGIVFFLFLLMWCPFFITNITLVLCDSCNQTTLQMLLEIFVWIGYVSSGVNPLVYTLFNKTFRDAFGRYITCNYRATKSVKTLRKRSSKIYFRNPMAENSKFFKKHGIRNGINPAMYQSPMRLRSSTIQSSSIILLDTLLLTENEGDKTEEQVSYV

[4] = biological target: T2, Alpha-2A adrenergic receptor (Homo sapiens, UniProt P08913)
T2 sequence (P08913 whole entry): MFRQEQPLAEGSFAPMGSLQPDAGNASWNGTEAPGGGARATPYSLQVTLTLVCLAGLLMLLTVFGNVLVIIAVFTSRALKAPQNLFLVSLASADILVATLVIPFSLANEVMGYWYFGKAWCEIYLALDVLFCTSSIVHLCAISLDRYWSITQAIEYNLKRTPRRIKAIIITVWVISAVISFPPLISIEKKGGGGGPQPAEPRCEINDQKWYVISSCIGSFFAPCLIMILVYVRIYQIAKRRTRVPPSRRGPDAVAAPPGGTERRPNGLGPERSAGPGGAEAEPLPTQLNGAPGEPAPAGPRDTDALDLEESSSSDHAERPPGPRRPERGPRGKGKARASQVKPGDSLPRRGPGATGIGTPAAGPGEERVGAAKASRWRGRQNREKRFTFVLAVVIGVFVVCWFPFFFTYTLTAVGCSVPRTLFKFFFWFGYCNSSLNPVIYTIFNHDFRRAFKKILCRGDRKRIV

[5] = biological target: T3, 5-hydroxytryptamine receptor 1A (Homo sapiens, UniProt P08908)
T3 sequence (P08908 whole entry): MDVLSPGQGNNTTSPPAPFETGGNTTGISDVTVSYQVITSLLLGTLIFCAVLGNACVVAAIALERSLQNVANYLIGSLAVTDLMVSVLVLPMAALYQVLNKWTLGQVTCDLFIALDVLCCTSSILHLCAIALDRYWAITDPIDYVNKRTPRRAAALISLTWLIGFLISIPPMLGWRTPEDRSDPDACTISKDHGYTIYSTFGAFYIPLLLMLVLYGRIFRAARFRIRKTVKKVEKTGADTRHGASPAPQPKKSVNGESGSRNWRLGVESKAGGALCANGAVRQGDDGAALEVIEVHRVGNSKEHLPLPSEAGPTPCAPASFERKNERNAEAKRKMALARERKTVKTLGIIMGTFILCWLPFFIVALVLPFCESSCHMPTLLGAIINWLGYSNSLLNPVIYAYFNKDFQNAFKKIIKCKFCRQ
Also: assay procedure not described here.

Cannabinoid receptor 1, sequence (P21554 whole entry): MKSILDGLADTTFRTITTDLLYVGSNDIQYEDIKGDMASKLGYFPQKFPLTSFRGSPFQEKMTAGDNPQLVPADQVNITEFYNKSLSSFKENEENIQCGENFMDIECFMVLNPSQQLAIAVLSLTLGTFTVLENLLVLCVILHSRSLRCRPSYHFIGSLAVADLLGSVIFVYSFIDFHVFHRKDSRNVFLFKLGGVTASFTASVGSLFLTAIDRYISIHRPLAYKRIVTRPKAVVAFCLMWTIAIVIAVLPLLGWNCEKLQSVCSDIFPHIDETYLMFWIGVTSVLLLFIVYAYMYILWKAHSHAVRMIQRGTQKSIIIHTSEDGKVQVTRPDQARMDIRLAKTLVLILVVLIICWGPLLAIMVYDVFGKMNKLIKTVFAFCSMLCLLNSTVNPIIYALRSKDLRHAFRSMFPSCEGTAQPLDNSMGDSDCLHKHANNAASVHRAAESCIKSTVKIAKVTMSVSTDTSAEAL

Row | SMILES | AC50 (Cannabinoid receptor 1) [µM] | AC50 [1] [µM] | further results
1 | COC(=O)[C@H]1[C@H]2C[C@@H]3c4[nH]c5cc(OC)ccc5c4CCN3C[C@H]2C[C@@H](OC(=O)/C=C/c2cc(OC)c(OC)c(OC)c2)[C@@H]1OC [RESCINNAMINE] | > 10 | – | –
2 | O=C(O)CCCCCCCC(=O)O [AZELAIC ACID] | > 10 | – | –
3 | O=C(O)C1=C(CSc2nnnn2CS(=O)(=O)O)CS[C@@H]2[C@H](NC(=O)[C@H](O)c3ccccc3)C(=O)N12 [CEFONICID] | > 30 | > 30 | –
4 | O=C(O)[C@H](CC(=O)N1C[C@H]2CCCC[C@H]2C1)Cc1ccccc1 [MITIGLINIDE] | > 10 | – | –
5 | CC(=O)OCC(=O)[C@@]12N=C(C)O[C@@H]1C[C@H]1[C@@H]3CCC4=CC(=O)C=C[C@]4(C)[C@H]3[C@@H](O)C[C@@]12C [DEFLAZACORT] | – | > 30 | –
6 | CN1C(=O)OC(C)(C)C1=O [TRIMETHADIONE] | > 10 | – | –
7 | COc1ccc(-c2ccc3cc(C(=O)O)ccc3c2)cc1C12CC3CC(CC(C3)C1)C2 | – | > 30 | –
8 | CC1(C)O[C@@H]2C[C@H]3[C@@H]4CCC5=CC(=O)C=C[C@]5(C)[C@H]4[C@@H](O)C[C@]3(C)[C@]2(C(=O)CO)O1 [DESONIDE] | > 10 | > 30 | AC50 [2]: > 30 µM
9 | C=CCN1CCCC1CNC(=O)c1cc(S(N)(=O)=O)cc(OC)c1OC (centres undefined) [VERALIPRIDE] | – | > 30 | –
10 | N#Cc1ccc([C@H]2CCc3cncn32)c(F)c1 [OSILODROSTAT] | > 10 | – | AC50 [3]: > 10 µM; AC50 [4]: > 10 µM; AC50 [5]: > 10 µM
11 | CC=CC(=O)N(CC)c1ccccc1C | > 10 | > 30 | –
12 | CCCC(C)C1(CC)C(=O)NC(=O)NC1=O (centres undefined) [PENTOBARBITAL] | > 10 | > 30 | –
13 | O=C(O)C[C@H](O)C[C@H](O)/C=C/c1c(C2CC2)nc2ccccc2c1-c1ccc(F)cc1 [PITAVASTATIN] | > 10 | > 30 | –
14 | COC(=O)C1=C(C)NC(C)=C(C(=O)OC(C)(C)CN(C)CCC(c2ccccc2)c2ccccc2)C1c1cccc([N+](=O)[O-])c1 (centres undefined) [LERCANIDIPINE] | 6.6 | – | –
15 | C[C@H](CSC(=O)c1ccccc1)C(=O)N1C[C@@H](Sc2ccccc2)C[C@H]1C(=O)O [ZOFENOPRIL] | > 10 | – | –
16 | CCOC(=O)OC(C)OC1=C(C(=O)Nc2ccccn2)N(C)S(=O)(=O)c2ccccc21 (centres undefined) [AMPIROXICAM] | – | > 30 | –
17 | NCC[C@H](O)C(=O)N[C@@H]1C[C@H](N)[C@@H](O[C@H]2O[C@H](CN)[C@@H](O)[C@H](O)[C@H]2O)[C@H](O)[C@H]1O[C@H]1O[C@H](CO)[C@@H](O)[C@H](N)[C@H]1O [AMIKACIN] | > 10 | – | –
18 | C[C@](N)(Cc1ccc(O)c(O)c1)C(=O)O [METHYLDOPA] | > 10 | – | –
19 | CC(C)C(=O)c1c(C(C)C)nn2ccccc12 [IBUDILAST] | – | > 30 | AC50 [2]: > 30 µM
20 | C#C[C@]1(O)CC[C@H]2[C@@H]3CCc4cc(OC5CCCC5)ccc4[C@H]3CC[C@@]21C [QUINESTROL] | > 10 | – | –
21 | C[C@]1(O)CC[C@H]2[C@@H]3CCC4=CC(=O)CC[C@]4(C)[C@@]3(F)[C@@H](O)C[C@@]21C [FLUOXYMESTERONE] | > 10 | – | –
22 | CCCCCCOc1ccccc1C(N)=O [EXALAMIDE] | – | > 30 | AC50 [3]: 0.27 µM
23 | CCOC(=O)[N-]c1cn(N2CCOCC2)n[o+]1 [MOLSIDOMINE] | – | > 30 | AC50 [2]: > 30 µM
24 | OC(CNCC(O)C1CCc2cc(F)ccc2O1)C1CCc2cc(F)ccc2O1 (centres undefined) [NEBIVOLOL] | – | 3.1 | AC50 [5]: 0.14 µM

Row | SMILES | AC50 (Cannabinoid receptor 1) [µM] | AC50 [1] [µM] | further results
25 | CN1CCN(CC/C=C2/c3ccccc3Sc3ccc(S(=O)(=O)N(C)C)cc32)CC1 [THIOTHIXENE] | – | 0.31 | AC50 [3]: 0.857 µM; AC50 [4]: 0.755 µM
26 | Nc1nc(N)nc(-c2cc(Cl)ccc2Cl)n1 [IRSOGLADINE] | – | > 30 | –
27 | Nc1nc(/C(=C/CC(=O)O)C(=O)N[C@@H]2C(=O)N3C(C(=O)O)=CCS[C@H]23)cs1 [CEFTIBUTEN] | > 30 | > 30 | –
28 | CC(=O)O[C@H]1C[C@@H]2CC[C@@H]3[C@H](CC[C@@]4(C)[C@H]3C[C@H]([N+]3(C)CCCCC3)[C@@H]4OC(C)=O)[C@@]2(C)C[C@@H]1N1CCCCC1 [VECURONIUM] | – | > 30 | –
29 | Cc1ccc(S(=O)(=O)NC(=O)NN2CC3CCCC3C2)cc1 (centres undefined) [GLICLAZIDE] | > 10 | – | –
30 | COc1ccc(CCN(C)CCCC(C#N)(c2cc(OC)c(OC)c(OC)c2)C(C)C)cc1OC (centres undefined) [GALLOPAMIL] | – | > 30 | AC50 [2]: > 30 µM; AC50 [3]: 0.0819 µM
31 | CO[C@@H]1[C@@H](O[C@@H]2O[C@H](C)[C@@H](O[C@H]3C[C@@](C)(O)[C@@H](OC(=O)CC(C)C)[C@H](C)O3)[C@H](N(C)C)[C@H]2O)[C@@H](CC=O)C[C@@H](C)[C@@H](O)/C=C/C=C/C[C@@H](C)OC(=O)C[C@H]1OC(C)=O [JOSAMYCIN] | > 10 | – | –
32 | COc1ccccc1N1CCN(CCCNc2cc(=O)n(C)c(=O)n2C)CC1 | – | 0.57 | AC50 [5]: 0.492 µM
33 | CCOC(=O)[C@H](CCc1ccccc1)N[C@@H](C)C(=O)N1C(=O)N(C)C[C@H]1C(=O)O | – | > 30 | –
34 | O=C(NCCN1CCOCC1)c1ccc(Cl)cc1 [MOCLOBEMIDE] | > 10 | – | –
35 | CC(C[N+](C)(C)C)OC(N)=O (centres undefined) [BETHANECHOL] | > 10 | – | –
36 | NCC(=O)CCC(=O)O [AMINOLEVULINIC ACID] | – | > 30 | AC50 [2]: > 30 µM
37 | CC(CC(c1ccccc1)c1ccccc1)NC(C)(C)C (centres undefined) [TERODILINE] | – | 12 | –
38 | CO/N=C(\C(=O)N[C@@H]1C(=O)N2C(C(=O)O)=C(CSc3nnnn3C)CS[C@H]12)c1csc(N)n1 [CEFMENOXIME] | – | > 30 | AC50 [2]: > 30 µM
39 | CC(C)Cn1cnc2c(N)nc3ccccc3c21 [IMIQUIMOD] | > 10 | – | AC50 [5]: > 10 µM
40 | O=C(O)CCCCCCNC1c2ccccc2CCc2ccccc21 [AMINEPTINE] | – | > 30 | –
41 | CCCN(CCC)C(=O)C(CCC(=O)O)NC(=O)c1ccccc1 (centres undefined) [PROGLUMIDE] | > 10 | – | AC50 [3]: > 10 µM; AC50 [4]: > 10 µM; AC50 [5]: > 10 µM
42 | C=CCC1(CC(C)C)C(=O)NC(=O)NC1=O [BUTALBITAL] | > 10 | > 30 | –
43 | C[C@]12CC[C@H]3[C@@H](CCC4=CC(=O)CC[C@@]43C)[C@@H]1CC[C@@H]2O [TESTOSTERONE] | > 10 | – | –
44 | Cc1cccc(C(C)c2cnc[nH]2)c1C (centres undefined) [MEDETOMIDINE] | > 30 | – | –
45 | CCN1CCN(C(=O)N[C@@H](C(=O)N[C@@H]2C(=O)N3C(C(=O)O)=C(CSc4nnnn4C)CS[C@H]23)c2ccc(O)cc2)C(=O)C1=O [CEFOPERAZONE] | – | – | AC50 [2]: > 30 µM
46 | C#C[C@]1(O)CC[C@H]2[C@@H]3CCC4=Cc5oncc5C[C@]4(C)[C@H]3CC[C@@]21C [DANAZOL] | > 10 | > 30 | AC50 [2]: > 30 µM
47 | CNS(=O)(=O)Cc1ccc2[nH]cc(CCN(C)C)c2c1 | – | > 30 | AC50 [2]: > 30 µM; AC50 [3]: 14 µM; AC50 [4]: > 10 µM
48 | CCCC(=O)O[C@]1(C(=O)CO)CC[C@H]2[C@@H]3CCC4=CC(=O)CC[C@]4(C)[C@H]3[C@@H](O)C[C@@]21C [HYDROCORTISONE BUTYRATE] | > 10 | – | –
